Assays:
[1] = Stability in PBS at room temperature via HPLC (UV); type: physicochemical; details: phosphate-buffered saline (DPBS)
Description: (§1) Stability studies were conducted in PBS and acetate buffer utilizing high performance liquid chromatography for potential drug storage considerations. […]
(§2) All experiments were performed in duplicate and results are presented as the average of two experimental replicates.
(§3) 1.1 Aqueous Stability in PBS and Acetate Buffer via HPLC
(§4) Material and Instrumentation
(§5) HPLC grade acetonitrile (MeCN) […] HPLC grade water (H 2O), and formic acid (FA) were purchased from Fisher Scientific.
(§6) Puradisc 4 mm PTFE (0.45 μm) syringe filters from Cytiva. Gibco ® Dulbecco’s phosphate-buffered saline (DPBS 1X, no calcium, no magnesium, pH = 7.03) and acetate buffer (pH = 5.0, 10 mM) were purchased directly from Thermo Fisher Scientific and Cytiva, respectively.
(§7) Aqueous stability experiments were performed on an Agilent 1100 HPLC equipped with an Agilent G1315B diode array detector, an Agilent G1316A heated column compartment, and a Zorbax Eclipse XDB-C18 (4.6 x 150 mm, 5 μm) column.
(§8) Procedure for Aqueous Stability Experiments
(§9) Each sample was first weighed out in two separate 2.0 mL vials using an analytical balance.
(§10) Unless otherwise specified, the test compounds were then dissolved in the aqueous media (PBS or acetate buffer) at a standard concentration of 1 mg/mL. All mixtures were subsequently sonicated for approximately 30 sec. […]
(§11) min), precipitates observed in sample solutions were filtered with a PTFE syringe filter prior to analysis. Immediately after sample preparation, injection by the HPLC autosampler was performed, which was recorded as the initial time point (t = 0 min). Solutions were then kept in the autosampler at RT and reinjected at designated intervals without additional filtration or sample modification. Remaining prodrug was defined by the area under the curve (AUC) at 254 nm. Aqueous stability was ascertained by calculating the percentage of the parent compound remaining after each time point. Linear regression of the time (x-axis) vs. ln(%remaining) (y-axis) plot afforded the rate constant k (slope = -k). Pseudo first-order half-lives were then calculated by the following equation: t1/2 = 0.693/k.

[2] = Plasma stability assay at 37 °C via LC-MS/MS, human plasma; type: in vitro ADME; details: for half-life at 3 µM: human, plasma;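 as to all read-outs here: prodrugs at 3 µM incubated in human plasma at 37 °C, intact prodrug quantified by LC-MS/MS over time, values are means of duplicate runs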
[3] = PBS stability assay at 37 °C via LC-MS/MS; type: physicochemical; details: for half-life at 3 µM / remaining at 2 h, 3 µM: phosphate-buffered saline (DPBS); for half-life at 3 µM: pH 7.03, PBS; for PBS, 37 °C %rem. at 2h (Table S23) / half-life at 3 µM / remaining at 2 h, 3 µM: 37 °C; for remaining at 2 h, 3 µM: pH 7.03, read-out: % Remaining @ 2h, PBS, 37 °C (Tables S25, S26)
Description: To address this, prodrug stability was further evaluated in human plasma at 37 °C using liquid chromatography–tandem mass spectrometry (LC-MS/MS). For direct comparison, a parallel screen was conducted in PBS under identical conditions (Table ). To prevent premature degradation prior to LC-MS/MS analysis, acetonitrile containing formic acid was used as a quenching solution to acidify and stabilize the prodrugs in vials. […] This limitation in detection, along with the need for a more uniform and broadly applicable assessment across all compounds, prompted us to monitor the formation of the parent oxime as an alternative readout.
Stability experiments in human plasma and PBS were performed via liquid chromatography-tandem mass spectrometry (LC-MS/MS) to determine and compare rate of cleavage of progesterone prodrugs as well as selected allopregnanolone prodrugs (3 µM) when incubated at 37 °C. All experiments were performed in duplicate and results are presented as the average of two experimental replicates.

[4] = Stability in acetate buffer pH 5.0 at room temperature via HPLC (UV); type: physicochemical
Description: as §1, §2, §3, §4, §5, §6, §7, §8, §9, §10, §11

[5] = Aqueous solubility by visual inspection in acetate buffer (pH 5); details: sodium acetate buffer
Description: For the solubility assessment, acetate buffer (pH 5) was selected as the media of choice to ensure prodrug stability during analysis.
High aqueous solubility was determined by visual inspection of 5 mg solid material in 0.5 mL
sodium acetate buffer solution. This media was selected to ensure stability of prodrugs during
dissolution in 50 mg/mL aqueous media.

[6] = pH 7.03, DPBS pH 7.03, RT, 1 mg/mL, HPLC 254 nm, read-out: t1/2 in PBS buffer at RT (Tables S1-S4) (converted)
[7] = pH 7.03, PBS, rt, read-out: t½: PBS, rt (Table S23) (converted)
[8] = 3 µM, LC-MS/MS, read-out: t1/2 in human plasma at 37 °C (Tables S10-S13, S18) (converted)
[9] = read-out: Plasma, 37 °C t½ (Table S23) (converted)
[10] = 3 µM, LC-MS/MS, read-out: t1/2 in PBS at 37 °C (Tables S14-S17) (converted)
[11] = read-out: PBS, 37 °C t½ (Table S23) (converted)
[12] = pH 5, acetate buffer pH 5.0, RT, 1 mg/mL, HPLC 254 nm, read-out: t1/2 in acetate buffer at RT (Tables S5-S8) (converted)
[13] = pH 5, acetate buffer pH 5.0, rt, read-out: t½: pH 5.0, rt (Table S23) (converted)
[14] = pH 5, aqueous buffer, thermodynamic from solid
[15] = pH 7.03, PBS, rt, HPLC (UV), read-out: Half-life (t½) PBS rt (converted)
[16] = LC-MS/MS, read-out: Half-life (t½) Plasma 37°C (converted)
[17] = LC-MS/MS, read-out: Half-life (t½) PBS 37°C (converted)
[18] = pH 5, acetate buffer pH 5.0, rt, HPLC (UV), read-out: Half-life (t½) pH 5.0 rt (converted)
[19] = read-out: t1/2 (h) PBS, 37 °C (Tables S25, S26) (converted)

SMILES | half-life at 1 mg/mL [1, 6] [h] | half-life at 1 mg/mL [1, 7] [h] | Plasma, 37 °C %rem. at 2h (Table S23) [2] [%] | half-life at 3 µM [2, 8] [h] | half-life at 3 µM [2, 9] [h] | PBS, 37 °C %rem. at 2h (Table S23) ([3]; PBS) [%] | half-life at 3 µM [3, 10] [h] | half-life at 3 µM [3, 11] [h] | half-life at 1 mg/mL [4, 12] [h] | half-life at 1 mg/mL [4, 13] [h] | solubility [5, 14] [µg/mL] | Prodrug stability / self-immolation in buffer, in words ([3]; PBS) | half-life at 1 mg/mL ([4]; pH 5, acetate buffer pH 5.0, RT, HPLC 254 nm, read-out: t1/2 in acetate buffer at RT) [h] | solubility ([5]; pH 5) [µg/mL] | half-life at 1 mg/mL [1, 15] [h] | half-life at 3 µM [2, 16] [h] | half-life at 3 µM [3, 17] [h] | half-life at 1 mg/mL [4, 18] [h] | half-life at 3 µM [3, 19] [h] | remaining at 2 h, 3 µM ([3]; PBS) [%]
C/C(=N\OC(=O)N(C)C[C@H]1CCCN1)[C@H]1CC[C@H]2[C@@H]3CCC4=CC(=O)CC[C@]4(C)[C@H]3CC[C@]12C.O=C(O)C(F)(F)F [20m] | 6.15 ± 0.02 | 6.15 | 2 | 0.35 | 0.35 | 11 | 0.8 | 0.8 | > 168 | > 168 | > 10000 | – | – | – | – | – | – | – | – | –
C/C(=N\OC(=O)N(CCN(C)C)CCN(C)C)[C@H]1CC[C@H]2[C@@H]3CCC4=CC(=O)CC[C@]4(C)[C@H]3CC[C@]12C [20y] | 0.017 ± 0.002 | 0.02 | 84 | 8.88 | 8.88 | 35 | 1.87 | 1.87 | – | – | – | hydrolytic instability | 0.1322 ± 0.00117 | < 10000 | – | – | – | – | – | –
C/C(=N\OC(=O)N(C)C[C@@H]1C[C@H](N(C)C)CN1)[C@H]1CC[C@H]2[C@@H]3CCC4=CC(=O)CC[C@]4(C)[C@H]3CC[C@]12C [20u] | 7.53 ± 1.3 | 7.53 | 17 | 0.74 | 0.74 | – | 1.08 | 1.08 | 72 | 72 | > 10000 | – | – | – | 7.53 | 0.73 | 1.08 | 72 | – | –
CNCCN(CCn1ccnc1)C(=O)O/N=C(\C)[C@H]1CC[C@H]2[C@@H]3CCC4=CC(=O)CC[C@]4(C)[C@H]3CC[C@]12C [20k] | 47 ± 2.84 | 47 | 68 | 3.16 | 3.16 | 70 | 5.99 | 5.99 | > 168 | > 168 | > 10000 | – | – | – | – | – | – | – | 5.99 | 70
C/C(=N\OC(=O)N(C)C[C@@H]1CC2(CC2)CN1)[C@H]1CC[C@H]2[C@@H]3CCC4=CC(=O)CC[C@]4(C)[C@H]3CC[C@]12C [20q] | 4.35 | 4.35 | 15 | 0.65 | 0.65 | 5 | 0.7 | 0.7 | > 168 | > 168 | > 10000 | – | – | – | 4.35 | 0.64 | 0.7 | > 168 | – | –
CNCCN(C(=O)O/N=C(\C)[C@H]1CC[C@H]2[C@@H]3CCC4=CC(=O)CC[C@]4(C)[C@H]3CC[C@]12C)C(C)C.O=C(O)C(F)(F)F [20c] | 19.7 ± 0.38 | 19.7 | 47 | 1.59 | 1.59 | 53 | 3.27 | 3.27 | > 168 | > 168 | > 10000 | – | – | – | 19.7 | 1.59 | 3.27 | > 168 | 3.27 | 53
CNCCN(C(=O)O/N=C(\C)[C@H]1CC[C@H]2[C@@H]3CCC4=CC(=O)CC[C@]4(C)[C@H]3CC[C@]12C)C1CCCC1.O=C(O)C(F)(F)F [20e] | 10.7 ± 0.15 | 10.7 | 76 | 4.02 | 4.02 | 34 | 1.74 | 1.74 | > 168 | > 168 | > 10000 | – | – | – | 10.7 | 3.09 | 1.74 | > 168 | 1.74 | 34
C/C(=N\OC(=O)N(CCO)CCNCCO)[C@H]1CC[C@H]2[C@@H]3CCC4=CC(=O)CC[C@]4(C)[C@H]3CC[C@]12C.Cl [20z] | 28.8 ± 3.16 | 28.8 | 71 | 2.3 | 2.3 | 78 | 6.27 | 6.27 | > 168 | > 168 | > 10000 | – | – | – | – | – | – | – | – | –
CNCCN(CC(C)C)C(=O)O/N=C(\C)[C@H]1CC[C@H]2[C@@H]3CCC4=CC(=O)CC[C@]4(C)[C@H]3CC[C@]12C.O=C(O)C(F)(F)F [20f] | 50.7 ± 5.11 | > 24 | 95 | 4.78 | 4.78 | 55 | 5.07 | 5.07 | > 168 | > 168 | > 10000 | – | – | – | – | – | – | – | 5.07 | 55
